{"source": "paper PMC12649549", "about": "“Sequence Permutation Generated Lysine and Tryptophan-Rich Antimicrobial Peptides with Enhanced Therapeutic Index” (Antibiotics, 2025)", "key": {"S. aureus ATCC 25923": {"test_system": "S. aureus ATCC 25923", "summary_of_the_method": "(§1)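 MICs came from CLSI broth microdilution, with 5 × 10^5 CFU/mL bacteria exposed to peptide at final 0.78–50 µg/mL. Media were MH broth or LYM broth (pH 7.4), the latter also adjusted for salt (NaCl 50–300 mM, MgCl2 0.5–2.5 mM) or acidity (pH 4.5–6.5); triplicate independent experiments.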"}, "[1]": {"test_system": "A. baumannii 14B00100 (Acinetobacter sp., BCRC number 14B0100)", "summary_of_the_method": "as §1"}, "S. aureus ATCC 33591": {"test_system": "S. aureus ATCC 33591", "summary_of_the_method": "as §1"}, "[2]": {"test_system": "A. baumannii 14B0091 (Acinetobacter sp., BCRC number 14B0091)", "summary_of_the_method": "as §1"}, "S. aureus ATCC 33593": {"test_system": "S. aureus ATCC 33593", "summary_of_the_method": "as §1"}, "[3]": {"test_system": "Escherichia coli (ATCC 25922)", "summary_of_the_method": "as §1"}, "[4]": {"test_system": "Pseudomonas aeruginosa Migula (ATCC 27853)", "summary_of_the_method": "as §1"}, "[5]": {"settings": "LYM broth, 0 mM NaCl, 16 h, 37 °C"}, "[6]": {"settings": "LYM broth, 50 mM NaCl, 16 h, 37 °C"}, "[7]": {"settings": "LYM broth, 100 mM NaCl, 16 h, 37 °C"}, "[8]": {"settings": "LYM broth, 200 mM (NaCl), 16 h, 37 °C"}, "[9]": {"settings": "LYM broth, 300 mM (NaCl), 16 h, 37 °C"}, "[10]": {"settings": "MH broth, 5 × 10^5 CFU/mL, 16 h, 37 °C, repeated three times"}}, "note": "Read-outs that look alike come from different tables or passages of the source."}
{"substance": "Ac-KKKKWRKWLKWLA-NH2 [Peptide W5K11]", "values": [{"measurement": "MIC", "setting": "S. aureus ATCC 25923; [5]", "result": 1.56, "unit": "µg/mL"}, {"measurement": "MIC", "setting": "S. aureus ATCC 25923; LYM broth, 0.5 mM MgCl2", "result": 1.56, "unit": "µg/mL"}, {"measurement": "MIC", "setting": "S. aureus ATCC 25923; LYM broth, 1.5 mM MgCl2", "result": 1.56, "unit": "µg/mL"}, {"measurement": "MIC", "setting": "S. aureus ATCC 25923; LYM broth, 2.5 mM MgCl2", "result": 1.56, "unit": "µg/mL"}, {"measurement": "MIC", "setting": "S. aureus ATCC 25923; [6]", "result": 1.56, "unit": "µg/mL"}, {"measurement": "MIC", "setting": "S. aureus ATCC 25923; [7]", "result": 3.13, "unit": "µg/mL"}, {"measurement": "MIC", "setting": "S. aureus ATCC 25923; [8]", "result": 3.13, "unit": "µg/mL"}, {"measurement": "MIC", "setting": "S. aureus ATCC 25923; [9]", "result": 6.25, "unit": "µg/mL"}, {"measurement": "MIC", "setting": "S. aureus ATCC 25923; LYM broth, pH 4.5", "result": 3.13, "unit": "µg/mL"}, {"measurement": "MIC", "setting": "S. aureus ATCC 25923; LYM broth, pH 5.5", "result": 1.56, "unit": "µg/mL"}, {"measurement": "MIC", "setting": "S. aureus ATCC 25923; LYM broth, pH 6.5", "result": 1.56, "unit": "µg/mL"}, {"measurement": "MIC", "setting": "S. aureus ATCC 25923; [10]", "result": 3.13, "unit": "µg/mL"}, {"measurement": "MIC", "setting": "[1]; [5]", "result": 0.78, "unit": "µg/mL"}, {"measurement": "MIC", "setting": "[1]; LYM broth, 0.5 mM MgCl2", "result": 1.56, "unit": "µg/mL"}, {"measurement": "MIC", "setting": "[1]; LYM broth, 1.5 mM MgCl2", "result": 1.56, "unit": "µg/mL"}, {"measurement": "MIC", "setting": "[1]; LYM broth, 2.5 mM MgCl2", "result": 1.56, "unit": "µg/mL"}, {"measurement": "MIC", "setting": "[1]; [6]", "result": 0.78, "unit": "µg/mL"}, {"measurement": "MIC", "setting": "[1]; [7]", "result": 0.78, "unit": "µg/mL"}, {"measurement": "MIC", "setting": "[1]; [8]", "result": 0.78, "unit": "µg/mL"}, {"measurement": "MIC", "setting": "[1]; [9]", "result": 0.78, "unit": "µg/mL"}, {"measurement": "MIC", "setting": "[1]; LYM broth, pH 4.5", "result": 1.56, "unit": "µg/mL"}, {"measurement": "MIC", "setting": "[1]; LYM broth, pH 5.5", "result": 1.56, "unit": "µg/mL"}, {"measurement": "MIC", "setting": "[1]; LYM broth, pH 6.5", "result": 1.56, "unit": "µg/mL"}, {"measurement": "MIC", "setting": "[1]; [10]", "result": 1.56, "unit": "µg/mL"}, {"measurement": "MIC", "setting": "S. aureus ATCC 33591; [5]", "result": 3.13, "unit": "µg/mL"}, {"measurement": "MIC", "setting": "S. aureus ATCC 33591; LYM broth, 0.5 mM MgCl2", "result": 3.13, "unit": "µg/mL"}, {"measurement": "MIC", "setting": "S. aureus ATCC 33591; LYM broth, 1.5 mM MgCl2", "result": 3.13, "unit": "µg/mL"}, {"measurement": "MIC", "setting": "S. aureus ATCC 33591; LYM broth, 2.5 mM MgCl2", "result": 3.13, "unit": "µg/mL"}, {"measurement": "MIC", "setting": "S. aureus ATCC 33591; [6]", "result": 3.13, "unit": "µg/mL"}, {"measurement": "MIC", "setting": "S. aureus ATCC 33591; [7]", "result": 3.13, "unit": "µg/mL"}, {"measurement": "MIC", "setting": "S. aureus ATCC 33591; [8]", "result": 6.25, "unit": "µg/mL"}, {"measurement": "MIC", "setting": "S. aureus ATCC 33591; [9]", "result": 6.25, "unit": "µg/mL"}, {"measurement": "MIC", "setting": "S. aureus ATCC 33591; LYM broth, pH 4.5", "result": 3.13, "unit": "µg/mL"}, {"measurement": "MIC", "setting": "S. aureus ATCC 33591; LYM broth, pH 5.5", "result": 3.13, "unit": "µg/mL"}, {"measurement": "MIC", "setting": "S. aureus ATCC 33591; LYM broth, pH 6.5", "result": 3.13, "unit": "µg/mL"}, {"measurement": "MIC", "setting": "S. aureus ATCC 33591; [10]", "result": 12.5, "unit": "µg/mL"}, {"measurement": "MIC", "setting": "[2]; [5]", "result": 1.56, "unit": "µg/mL"}, {"measurement": "MIC", "setting": "[2]; LYM broth, 0.5 mM MgCl2", "result": 1.56, "unit": "µg/mL"}, {"measurement": "MIC", "setting": "[2]; LYM broth, 1.5 mM MgCl2", "result": 1.56, "unit": "µg/mL"}, {"measurement": "MIC", "setting": "[2]; LYM broth, 2.5 mM MgCl2", "result": 1.56, "unit": "µg/mL"}, {"measurement": "MIC", "setting": "[2]; [6]", "result": 1.56, "unit": "µg/mL"}, {"measurement": "MIC", "setting": "[2]; [7]", "result": 1.56, "unit": "µg/mL"}, {"measurement": "MIC", "setting": "[2]; [8]", "result": 1.56, "unit": "µg/mL"}, {"measurement": "MIC", "setting": "[2]; [9]", "result": 1.56, "unit": "µg/mL"}, {"measurement": "MIC", "setting": "[2]; LYM broth, pH 4.5", "result": 1.56, "unit": "µg/mL"}, {"measurement": "MIC", "setting": "[2]; LYM broth, pH 5.5", "result": 1.56, "unit": "µg/mL"}, {"measurement": "MIC", "setting": "[2]; LYM broth, pH 6.5", "result": 1.56, "unit": "µg/mL"}, {"measurement": "MIC", "setting": "[2]; [10]", "result": 0.78, "unit": "µg/mL"}, {"measurement": "MIC", "setting": "S. aureus ATCC 33593; [5]", "result": 3.13, "unit": "µg/mL"}, {"measurement": "MIC", "setting": "S. aureus ATCC 33593; LYM broth, 0.5 mM MgCl2", "result": 3.13, "unit": "µg/mL"}, {"measurement": "MIC", "setting": "S. aureus ATCC 33593; LYM broth, 1.5 mM MgCl2", "result": 3.13, "unit": "µg/mL"}, {"measurement": "MIC", "setting": "S. aureus ATCC 33593; LYM broth, 2.5 mM MgCl2", "result": 3.13, "unit": "µg/mL"}, {"measurement": "MIC", "setting": "S. aureus ATCC 33593; [6]", "result": 3.13, "unit": "µg/mL"}, {"measurement": "MIC", "setting": "S. aureus ATCC 33593; [7]", "result": 3.13, "unit": "µg/mL"}, {"measurement": "MIC", "setting": "S. aureus ATCC 33593; [8]", "result": 3.13, "unit": "µg/mL"}, {"measurement": "MIC", "setting": "S. aureus ATCC 33593; [9]", "result": 6.25, "unit": "µg/mL"}, {"measurement": "MIC", "setting": "S. aureus ATCC 33593; LYM broth, pH 4.5", "result": 3.13, "unit": "µg/mL"}, {"measurement": "MIC", "setting": "S. aureus ATCC 33593; LYM broth, pH 5.5", "result": 1.56, "unit": "µg/mL"}, {"measurement": "MIC", "setting": "S. aureus ATCC 33593; LYM broth, pH 6.5", "result": 1.56, "unit": "µg/mL"}, {"measurement": "MIC", "setting": "S. aureus ATCC 33593; [10]", "result": 6.25, "unit": "µg/mL"}, {"measurement": "MIC", "setting": "[3]; [5]", "result": 1.56, "unit": "µg/mL"}, {"measurement": "MIC", "setting": "[3]; LYM broth, 0.5 mM MgCl2", "result": 3.13, "unit": "µg/mL"}, {"measurement": "MIC", "setting": "[3]; LYM broth, 1.5 mM MgCl2", "result": 3.13, "unit": "µg/mL"}, {"measurement": "MIC", "setting": "[3]; LYM broth, 2.5 mM MgCl2", "result": 3.13, "unit": "µg/mL"}, {"measurement": "MIC", "setting": "[3]; [6]", "result": 1.56, "unit": "µg/mL"}, {"measurement": "MIC", "setting": "[3]; [7]", "result": 3.13, "unit": "µg/mL"}, {"measurement": "MIC", "setting": "[3]; [8]", "result": 3.13, "unit": "µg/mL"}, {"measurement": "MIC", "setting": "[3]; [9]", "result": 6.25, "unit": "µg/mL"}, {"measurement": "MIC", "setting": "[3]; LYM broth, pH 4.5", "result": 1.56, "unit": "µg/mL"}, {"measurement": "MIC", "setting": "[3]; LYM broth, pH 5.5", "result": 1.56, "unit": "µg/mL"}, {"measurement": "MIC", "setting": "[3]; LYM broth, pH 6.5", "result": 1.56, "unit": "µg/mL"}, {"measurement": "MIC", "setting": "[3]; [10]", "result": 6.25, "unit": "µg/mL"}, {"measurement": "MIC", "setting": "[4]; [5]", "result": 1.56, "unit": "µg/mL"}, {"measurement": "MIC", "setting": "[4]; LYM broth, 0.5 mM MgCl2", "result": 1.56, "unit": "µg/mL"}, {"measurement": "MIC", "setting": "[4]; LYM broth, 1.5 mM MgCl2", "result": 1.56, "unit": "µg/mL"}, {"measurement": "MIC", "setting": "[4]; LYM broth, 2.5 mM MgCl2", "result": 3.13, "unit": "µg/mL"}, {"measurement": "MIC", "setting": "[4]; [6]", "result": 1.56, "unit": "µg/mL"}, {"measurement": "MIC", "setting": "[4]; [7]", "result": 1.56, "unit": "µg/mL"}, {"measurement": "MIC", "setting": "[4]; [8]", "result": 3.13, "unit": "µg/mL"}, {"measurement": "MIC", "setting": "[4]; [9]", "result": 6.25, "unit": "µg/mL"}, {"measurement": "MIC", "setting": "[4]; LYM broth, pH 4.5", "result": 1.56, "unit": "µg/mL"}, {"measurement": "MIC", "setting": "[4]; LYM broth, pH 5.5", "result": 1.56, "unit": "µg/mL"}, {"measurement": "MIC", "setting": "[4]; LYM broth, pH 6.5", "result": 1.56, "unit": "µg/mL"}, {"measurement": "MIC", "setting": "[4]; [10]", "result": 3.13, "unit": "µg/mL"}]}
